# “Also recorded” adds a separate entry of the source.
# What was measured:
# [1] = molecular target: His-tag; parameters: method as in PMID 16028931; settings: read-out: molecular binding affinity of Ni(II)-NTA for His-tag; cited from earlier work
# [2] = tested on: mNeonGreen-His6; test: MST: mNeonGreen-His6 negative control against SB203580 in HeLa cell lysate; format: binding
# [3] = molecular target: pUL50 (Human cytomegalovirus) (UniProt P16791); test: ITC; settings: cited from earlier work
# Sequence of UniProt P16791 (P16791 whole entry): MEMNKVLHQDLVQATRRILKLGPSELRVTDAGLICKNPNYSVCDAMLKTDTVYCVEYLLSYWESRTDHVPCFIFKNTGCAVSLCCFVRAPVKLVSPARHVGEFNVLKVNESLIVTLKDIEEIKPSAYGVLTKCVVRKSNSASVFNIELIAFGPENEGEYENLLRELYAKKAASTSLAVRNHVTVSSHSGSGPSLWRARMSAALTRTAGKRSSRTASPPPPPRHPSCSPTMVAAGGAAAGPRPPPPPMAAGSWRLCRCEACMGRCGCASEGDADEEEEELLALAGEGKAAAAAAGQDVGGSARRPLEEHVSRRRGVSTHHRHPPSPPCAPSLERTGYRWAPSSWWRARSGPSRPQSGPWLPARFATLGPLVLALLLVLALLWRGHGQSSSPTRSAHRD
molecule,measurement,setting,value
"O=C(O)CN(CC(=O)O)CC(=O)O [NTA, nitrilotriacetic acid]",Kd,[1],~10 µM
C[S+]([O-])c1ccc(-c2nc(-c3ccncc3)c(-c3ccc(F)cc3)[nH]2)cc1 (stereo not drawn) [SB203580],binding to RED-tris-NTA labeled mNeonGreen-His6 (p38α-free negative control),[2],no binding could be detected; also recorded: did not yield a binding curve
pUL53 (from UniProt P16794),Kd,[3],0.29 µM

# Source: PMC5862892, “Near-native, site-specific and purification-free protein labeling for quantitative protein interaction analysis by MicroScale Thermophoresis” (Scientific Reports, 2018)
